{"source": "patent US20140230256A1", "about": "“HAND HELD DEVICE” (The Gillette Company, priority 2013, published 2014)", "origin": "cited, not measured here", "conditions": "organism not stated"}
{"smiles": "CCCCCCCCn1sc(Cl)c(Cl)c1=O", "note": "[4,5-dichloro-2-n-octyl-4-isothiazolin-3-one]", "values": [{"measurement": "MIC", "value": "about 50 ppm"}]}
